In brackets after ≈: the same amount, converted by molar mass. Entries after “also recorded” stand apart in the source; their conditions may differ. Where two headings read alike, the source gives them in different places.
Assays:
[1] = target: T1, LTA4H aminopeptidase activity (Homo sapiens, UniProt P09960)
T1 sequence (P09960 1-611): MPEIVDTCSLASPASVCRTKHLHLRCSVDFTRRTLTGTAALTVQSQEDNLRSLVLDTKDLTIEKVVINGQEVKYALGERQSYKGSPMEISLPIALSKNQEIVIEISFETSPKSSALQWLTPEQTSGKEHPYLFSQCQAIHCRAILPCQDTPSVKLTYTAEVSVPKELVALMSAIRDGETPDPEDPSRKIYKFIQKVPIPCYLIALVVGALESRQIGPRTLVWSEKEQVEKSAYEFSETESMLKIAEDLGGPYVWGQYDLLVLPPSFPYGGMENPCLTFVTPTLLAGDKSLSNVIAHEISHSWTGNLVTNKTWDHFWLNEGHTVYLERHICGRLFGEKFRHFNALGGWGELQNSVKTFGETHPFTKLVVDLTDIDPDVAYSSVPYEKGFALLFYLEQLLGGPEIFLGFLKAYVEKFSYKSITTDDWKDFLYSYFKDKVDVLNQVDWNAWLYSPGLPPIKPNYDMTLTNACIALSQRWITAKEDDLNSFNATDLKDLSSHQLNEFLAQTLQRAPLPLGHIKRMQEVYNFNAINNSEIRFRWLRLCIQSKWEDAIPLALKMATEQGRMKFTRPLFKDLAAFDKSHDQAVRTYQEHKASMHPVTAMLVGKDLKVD

[2] = target: T2, LTA4H epoxide hydrolase activity (Homo sapiens, UniProt P09960); conditions: Table 3; read-out: Epoxide Hydrolase IC50 ± SEM; cited from earlier work
T2 sequence (P09960 1-611): T1 sequence (P09960 1-611)

LTA4H = target: T3, LTA4H (Homo sapiens, UniProt P09960); conditions: cited from earlier work
T3 sequence (P09960 1-611): T1 sequence (P09960 1-611)

neutrophil swarming = test: Neutrophil swarming in vitro in response to factors in human CF sputum; conditions: acebilustat 48 ng/mL, factors present in human CF sputum
[3] = tested on: upper limb lymphedema patient; test: HEAL Phase 2 trial case report, dermal ultrasound of forearm; format: in vivo, human; conditions: Stage II lymphedema subject
Description: We present the early ultrasonographic responses of a participant who has completed 3 months of a total 6-month exposure. The primary endpoint for this trial involves quantitative analysis of dermal ultrasound skin changes.
These preliminary results lend great promise to the HEAL trial.

adult patients with CF = conditions: 48 weeks of treatment; Phase II adult CF patients; cited from earlier work
[4] = tested on: affected limb of lymphedema patients; test: Expanded access program, bioimpedance of affected limb; format: in vivo, human; conditions: 6 months vs baseline; p<0.01; higher bioimpedance = lower water content
Description: Bioimpedance is a measure of water content, and a higher bioimpedance corresponds to a lower water content.
FIGS. 5A, 5B and 5C are graphs presenting the same data as change in bioimpedance (as compared to baseline) over time.

lymphedema patients [5] = test: Expanded access program, dermal ultrasound; format: in vivo, human
LTB4 production = test: Pharmacodynamic studies in humans, LTB4 production/inhibition; format: in vivo, human
[6] = tested on: affected (lymphedematous) limb of lymphedema patients; test: Expanded access program, skin thickness of affected limb by caliper; format: in vivo, human; conditions: p<0.0001
Experimental: Skin thickness was measured by caliper.
At 6 months, a 43% reduction in skin thickness was observed (mean for 10 patients; p<0.0001).

[7] = tested on: LTB4 production in human whole blood; test: Human whole blood ex vivo LTB4 production; format: cell-based; conditions: human whole blood tested ex vivo; read-out: approximate IC50, LTB4 production
Experimental: The hydrolase-homogeneous time resolved fluorescence assay is a two-step assay that measures the hydrolysis of LTA4 to LTB4 by analyzing the amount of LTB4 produced. The first step involves the enzymatic conversion of LTA4 to LTB4 and the second step involves the quantification of the LTB4 formed with a homogeneous time resolved fluorescence assay. […] In the whole blood assay, the inhibitor compounds are tested for their ability to inhibit LTB4 release upon stimulation with calcium ionophore and the LTB4 levels in supernatants are measured by ELISA.

[8] = tested on: affected limb of lymphedema patients; test: Expanded access program, limb volume; format: in vivo, human; conditions: 6 months; mean for 6 patients; p<0.03
Description: At 6 months, a 6.7% reduction in limb volume was observed (mean for 6 patients; p<0.03).

lymphedema patients [9] = test: Expanded access program, LymVAS quality of life; format: in vivo, human; conditions: as early as 3 months, maintained at 6 months; 11 EAP patients
Experimental: Quality of life indicators were also evaluated in the 11 EAP patients using LymVAS, a tool to interrogate lymphedema patient experience and is based on experience and practice from prior lymphedema trials. LymVAS uses a sliding visual analog scale, wherein patients move the slider along a line to indicate the degree of response to a question. LymVAS has two segments: 1.

[10] = tested on: sputum white blood cells and neutrophils of CF patients; test: Sputum cell counts in CF patients
[11] = Table 2; read-out: Aminopeptidase IC50 ± SEM; cited from earlier work
[12] = Table 3; read-out: Aminopeptidase IC50 ± SEM; cited from earlier work
[13] = 3 months of treatment vs baseline
[14] = 3 months of treatment vs baseline, listed as Acebilustat
[15] = patient with right leg lymphedema, at 6 months

## CC(=O)Oc1ccc(/C=C/c2cc(OC(C)=O)cc(OC(C)=O)c2)cc1 [Cmpd 4]
[1]; Table 1; read-out: Aminopeptidase IC50 ± SEM; cited from earlier work
  IC50: > 100 µM

## COc1cc(O)cc(CCc2ccc(O)cc2)c1 [Cmpd 6]
[1]; [11]
  IC50: > 100 µM

## CCOc1cc(O)cc(CCc2ccc(O)cc2)c1 [Cmpd 7]
[1]; [11]
  IC50: > 100 µM

## COc1cc(O)cc(CCc2cccc(O)c2)c1 [Cmpd 8]
[1]; [11]
  IC50: > 100 µM

## COc1cc(O)cc(CCc2ccccc2O)c1 [Cmpd 9]
[1]; [11]
  IC50: > 100 µM

## O=C(Cc1ccc(O)cc1)c1ccc(O)cc1O [Cmpd 10]
[1]; [12]
  IC50: > 100 µM

## O=c1c(-c2ccc(O)cc2)coc2cc(O)ccc12 [Cmpd 11]
[1]; read-out: Aminopeptidase IC50 ± SEM; Table 3; cited from earlier work
  IC50: > 100 µM

## O=c1c(-c2ccc(O)cc2)coc2c(O)c(O)ccc12 [Cmpd 12]
[2]
  IC50: 7.3 ± 0.8 µM

## O=c1c(-c2ccccc2)coc2cc(O)ccc12 [Cmpd 13]
[1]; [12]
  IC50: > 100 µM

## CC(C)C[C@H](NC(=O)[C@@H](O)[C@H](N)Cc1ccccc1)C(=O)O [Ubenimex]
LTA4H
  potency at inhibiting LTB4 generation versus PGP degradation (selectivity class): non-selective LTA4H inhibitor

## O=C(O)c1ccc(CN2C[C@@H]3C[C@H]2CN3Cc2ccc(Oc3ccc(-c4ncco4)cc3)cc2)cc1 [acebilustat, 4-{[(1S,4S)-5-({4-[4-oxazol-2-yl-phenoxy]phenyl}methyl)-2,5-diazabicyclo[2.2.1]heptan-2-yl]methyl}benzoic acid]
Neutrophil swarming
  reduction of neutrophil swarming: 80%
[3]; 3 months of treatment
  demarcation of dermo-epidermal junction and subcutaneous fascial bands: enhanced demarcation
[3]; [13]
  dermal echogenicity by ultrasound: reduced echogenicity
  dermal thickness by ultrasound: reduced dermal thickness
  subcutaneous tissue echogenicity: decreased
[3]; [14]
  dermal thickness by ultrasound: reduced
  subcutaneous tissue echogenicity: reduced
Adult patients with CF
  rate of pulmonary exacerbations: showed promise in reducing the rate of pulmonary exacerbations
  risk of infection: no evidence of increased risk of infection
[4]
  bioimpedance (water content) of affected limb: significantly lower water content; also recorded: significantly higher bioimpedance
Lymphedema patients [5]; different patient (FIG. 7), after 6 months of treatment
  reduction in subcutaneous thickness: 15.2%
Lymphedema patients [5]; [15]
  reduction of dermal thickness: 3.7%
  reduction of subdermal thickness: over 20.2%
  reduction of total thickness: 17.6%
LTB4 production; 50 mg dose, human pharmacodynamic studies
  inhibition at 50 mg: ≥ 63%
LTB4 production; 100 mg dose, human pharmacodynamic studies
  inhibition at 100 mg: ≥ 74%
LTB4 production; 150 mg dose, human pharmacodynamic studies
  inhibition at 150 mg: ≥ 82%
LTB4 production; 200 mg, human pharmacodynamic studies
  LTB4 inhibition: at least 85%
LTB4 production; Homo sapiens, pharmacodynamic studies in humans, read-out: estimated in vivo EC50, inhibition of LTB4 production
  EC50: 0.093 µg/mL (≈ 0.193 µM)
[6]; 3 months after acebilustat treatment vs baseline, caliper
  skin thickness of affected limb: dramatically reduced; also recorded: significant decrease
[6]; 6 months vs baseline, mean for 10 patients
  reduction in skin thickness: 43%
[7]
  IC50: ~0.0308 µg/mL (≈ 0.064 µM)
[8]
  reduction in limb volume: 6.7%
Lymphedema patients [9]
  LymVAS Total Change Score: significant improvement
  LymVAS quality of life Total Status Score: significant improvement
[10]; 100 mg acebilustat group
  decrease of sputum white blood cells from Baseline: 60%
[10]; 100 mg group
  decrease of sputum neutrophils: 65%
[10]; all treated patients (doses of 50 to 100 mg)
  decrease of sputum neutrophils: 34%
[10]; all treated subjects (doses of 50 or 100 mg)
  decrease of sputum white blood cells from Baseline: 31%

— US20260166031A1, “Methods of Treating Lipedema and Lymphatic Disease of the Subcutaneous Tissue” (Celltaxis, LLC, priority 2023, published 2026)
